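All cell lines were grown in 96-well plates and treated with compound for 48 hours. Abbreviation: GI50, concentration required for 50% inhibition of growth. TGI is the concentration that stops growth completely.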
Key:
Experiment in all cases: NCI anticancer screen, dose series, 48 h
HOP-92 NSCLC = test system: HOP-92 NSCLC
MALME-3M melanoma = test system: MALME-3M melanoma
MCF7 breast = test system: MCF7 breast
MDA-MB-231 breast = test system: MDA-MB-231 breast
MOLT-4 leukemia = test system: MOLT-4 leukemia
NCI/ADR-RES ovarian = test system: NCI/ADR-RES ovarian
RPMI-8226 leukemia = test system: RPMI-8226 leukemia
SK-MEL-5 melanoma = test system: SK-MEL-5 melanoma
UACC-257 melanoma = test system: UACC-257 melanoma
UACC-62 melanoma = test system: UACC-62 melanoma

Compound | TGI (HOP-92 NSCLC) [µM] | GI50 (MALME-3M melanoma) [µM] | TGI (MALME-3M melanoma) [µM] | GI50 (MCF7 breast) [nM] | GI50 (MDA-MB-231 breast) [nM] | TGI (MDA-MB-231 breast) [µM] | GI50 (MOLT-4 leukemia) [µM] | TGI (MOLT-4 leukemia) [µM] | GI50 (NCI/ADR-RES ovarian) [µM] | TGI (NCI/ADR-RES ovarian) [µM] | GI50 (RPMI-8226 leukemia) [nM] | TGI (RPMI-8226 leukemia) [µM] | GI50 (SK-MEL-5 melanoma) [nM] | TGI (SK-MEL-5 melanoma) [µM] | GI50 (UACC-257 melanoma) [µM] | TGI (UACC-257 melanoma) [µM] | GI50 (UACC-62 melanoma) [nM] | TGI (UACC-62 melanoma) [µM] | GI50 (HOP-92 NSCLC) [nM] | TGI (MCF7 breast) [µM]
CC[C@@]1(O)C(=O)NCc2c1cc1n(c2=O)Cc2cc3ccccc3nc2-1 | > 29.4 | 83.9 | > 100 | 823 | > 100000 | > 100 | 0.3 | 2.2 | 2.92 | > 48.2 | 2150 | > 43.3 | 2770 | 18.7 | 7.95 | > 59.1 | 1870 | > 100 |  | 
CN1/C(=C\C(I)C(I)C2=[N+](C)c3ccccc3C2(C)C)C(C)(C)c2ccccc21 (stereo unspecified) | 1.23 | 0.277 | 14 | 485 | 773 | 20.9 | 0.243 | 2.07 | 13.3 | 42.2 | 57 | 2.67 | 126 | 0.528 | 0.175 | 2.24 | 303 | 14.2 | 93.1 | 19.2
O=C(c1ccccc1Nc1ccnc(C(F)(F)F)c1)N1CCN(c2cccc(Cl)c2)CC1 | 25 | 23.1 | 69.3 | 18000 | 16100 | 56 | 11.9 | 44.5 | 16.2 | 59.5 | 6300 | 48 | 8290 | 21.8 | 12.8 | 49.2 | 10600 | 25.7 | 914 | 80
CC(=O)OCC1OC(OC2C(COC(C)=O)OC(OCCC[S-])C(OC(C)=O)C2OC(C)=O)C(OC(C)=O)C(OC(C)=O)C1OC(C)=O.[Au+].c1ccc(CN2[CH-]N(Cc3ccccc3)C(c3ccccc3)=C2c2ccccc2)cc1 (stereo unspecified) | 6.24 | 2.19 | 6.56 | 2440 | 2380 | 5.93 | 3.42 | 26 | 19.5 | > 100 | 2780 | 11.1 | 1970 | 4.41 | 3.44 | 10.4 | 2630 | 8.96 | 2370 | 9.58
C/C(=C\c1ccc(Cl)cc1)C(C)(C)C(=O)O | > 100 |  | > 100 |  |  | > 100 |  | > 100 |  | > 100 |  | > 100 |  | > 100 |  | > 100 |  | > 100 |  | > 100
COc1ccccc1/C=C\c1cnnc2ccccc12 | 7.61 |  | > 10 |  |  | > 10 |  | > 10 |  | > 10 |  | > 10 |  | > 10 |  | > 10 |  | > 10 |  | > 10
Nc1ccc(-c2nc3ccc4[nH]ncc4c3c3c2CCCC3)cc1F | 11.2 | 1.74 | 6.98 | 1090 | 1710 | 30.5 | 1.27 | 5.82 | 1.86 | 16.6 | 842 | 7.37 | 986 | 4.53 | 1.92 | 10.7 | 1190 | 6.71 | 1700 | 8.92
O=c1[nH]cc(CS(=O)(=O)Cc2c[nH]c(=O)[nH]c2=O)c(=O)[nH]1 | > 100 |  | > 100 |  |  | > 100 |  | > 100 |  | > 100 |  | > 100 |  | > 100 |  | > 100 |  | > 100 |  | > 100
COc1ccc(OC)c(-c2nc3sccn3c2/C=C2/C(=O)Nc3ccc(Cl)cc32)c1 | > 100 | 30.8 | 80.8 | 27200 | 20300 | 55.3 | 22.1 | 69.4 | 25.6 | 89.8 | 26900 | 94.8 | 17400 | 33.1 | 21.4 | 44.3 | 11800 | 26.6 | 24400 | 85
COc1ccc(-c2ccc3c(NC(=O)C4CC4)n[nH]c3n2)cc1 | > 25 | > 25 | > 25 | > 25000 | > 25000 | > 25 | > 25 | > 25 | > 25 | > 25 | > 25000 | > 25 | > 25000 | > 25 | > 25 | > 25 | > 25000 | > 25 | 8020 | > 25
CCOC1OCCCC1Br (stereo unspecified) | > 100 |  | > 100 |  |  | > 100 |  | > 100 |  | > 100 |  | > 100 |  | > 100 |  | > 100 |  | > 100 |  | > 100
CCN(CC)CCN1C(=O)c2c(c(C)c3c(oc4cc(O)ccc43)c2C)C1=O | 3.14 | 1.56 | 2.97 | 1650 | 1740 | 3.36 |  |  | 1.66 | 3.26 | 1770 | 4.76 | 1560 | 2.92 | 1.95 | 4.15 | 1580 | 2.96 | 1540 | 3.32
O=C(O)c1c(O)c2cc(Br)ccc2oc1=O | > 100 |  | > 100 |  |  | > 100 |  | > 100 |  | > 100 |  | > 100 |  | > 100 |  | > 100 |  | > 100 |  | > 100
CC(CN=C(CC(=O)c1ccc(Br)cc1)c1ccccc1)N=C(CC(=O)c1ccc(Br)cc1)c1ccccc1 (stereo unspecified) | 78.8 | 23.3 | > 100 | 2910 | > 100000 | > 100 | 7.95 | > 100 | 14.2 | > 100 | 4370 | 38.6 | 2180 | 8.9 | 7.77 | > 100 | 32000 | > 100 | 11500 | > 100
